From patent publication US10934346B2, “Modified T cell comprising a polynucleotide encoding an inducible stimulating molecule comprising MyD88, CD40 and FKBP12” (priority 2014, dated 2021)
Where two headings read alike, the source gives them in different places.

Key:
[1] = cited from earlier work
Capan-1 tumor = Capan-1 tumor xenograft in NSG mice with T cell bioluminescence imaging; type: in vivo
Protocol: FIG. 3A) Shorn mice were engrafted with Capan-1 tumor cells and treated with PSCA.ζ CAR T cells cotransduced with control vector or iMC, or non-transduced T cells, and injected i.v. on days 7 and 14. Exogenous IL-2 was given i.p. until day 21 and then withdrawn. All mice received 5 mg/kg rimiducid i.p. twice per week (biw). Tumor size was measured by calipers (FIG. 3B) and survival assessed over a 100-day period (FIG. 3C). FIG. 3D) to measure in vivo CAR T cell persistence and expansion, NSG mice were used. Mice were injected s.c. with Capan-1 tumor cells and then treated with non-transduced (NT) or FKBP and PSCA.ζ-modified T cells or iMC and PSCA.ζ-modified T cells. Mice treated with iMC-enabled T cells received 2.5 mg/kg rimiducid once (qw), twice weekly (biw) or saline only via i.p. injection. FIG. 3E) Subcutaneous tumor size was measured by calipers over a 30 day period.
FIG. 3F) In vivo bioluminescence imaging was performed on mice treated with iMC-transduced T cells receiving saline only, or with systemic rimiducid administration. […]
In vivo studies. […] Tumors were measured by calipers and tumor size calculated. […] Photon emission was analyzed by constant region-of-interest (ROI) drawn over the tumor region and the signal measured as total counts as previously validated^10. As above, efficacy was assessed by measuring tumors using calipers. […]

IC-21 macrophages = test: IL-6 ELISA of adenovirus-transduced IC-21 macrophages with AP1903; type: cell-based
From the text: Inducible chimeric polypeptides of the present application were expressed in various cell types along with a tumor antigen. […] Cell lines included keratinocytes, melanocytes (for example, B16-F10 melanoma), macrophages (for example, IC-21), and fibroblasts (for example, BLK-CL4). FIG. 22 provides a schematic overview of the process by which expression of the chimeric polypeptide, after contacting AP1903, can induce the expression of inflammatory cytokines and chemokines in the transduced cell. FIG. 23 provides a schematic of an assay used to measure PSMA expression and cytokine secretion in transduced cells. The cells were transduced with one of four adenovirus Ad5 vectors: Ad5-iMC-RP-FL; Ad5-iMC-P2A-P-FL; Ad5f35iMC-RP-FL; or Ad5f35iMC-P2A-FL. […] IC-21 macrophages were cultured at 100,000 cells/ml/well in 24-well plates. […] A. Cells were labeled with anti-human PSMA antibody, LNI-17, (Biolegend, San Diego, Calif.) and PSMA expression was analyzed by flow cytometry. […] B. IL-6 was evaluated from the culture supernatants by ELISA (e-Bioscience, San Diego, Calif.). […] A. Cells were labeled with anti-human PSMA antibody, LNI-17, (Biolegend, San Diego, Calif.) and PSMA expression was analyzed by flow cytometry. […] B. IL-6 was evaluated from the culture supernatants by ELISA (e-Bioscience, San Diego, Calif.). […] IL-6 was evaluated from the culture supernatants by ELISA (e-Bioscience, San Diego, Calif.).

## CC[C@H](C(=O)N1CCCC[C@H]1C(=O)O[C@H](CCc1ccc(OC)c(OC)c1)c1cccc(OCC(=O)NCCNC(=O)COc2cccc([C@@H](CCc3ccc(OC)c(OC)c3)OC(=O)[C@@H]3CCCCN3C(=O)[C@@H](CC)c3cc(OC)c(OC)c(OC)c3)c2)c1)c1cc(OC)c(OC)c(OC)c1 (relative stereo) [rimiducid, 2-Piperidinecarboxylic acid, 1-[(2S)-1-oxo-2-(3,4,5-trimethoxyphenyl)butyl]-, 1,2-ethanediylbis [imino(2-oxo-2,1-ethanediyl)oxy-3,1-phenylene[(1R)-3-(3,4-Dimethoxyphenyl)propylidene]] ester, [2S-[1(R*),2R*[S*[S*[1(R*),2R*]]]]]-(9Cl)]
[1]; 0.01, 0.05, 0.1, 0.5 and 1.0 mg/kg
  plasma levels versus dose: directly proportional to dose
[1]; 0.5 hours post-dose
  plasma level as % of maximal concentration: approximately 18%
[1]; 2 hours post-dose
  plasma level as % of maximal concentration: ~7%
[1]; 10 hours post-dose
  plasma level as % of maximal concentration: ~1%
[1]; Phase I study
  well-tolerated doses: up to 1 mg/kg
[1]; plasma, over the 0.01-1.0 mg/kg dose range, infused IV over 2 hours
  mean Cmax: 10 to 1275 ng/mL
Capan-1 tumor; rimiducid 2.5 mg/kg once or twice weekly, iMC and PSCA.ζ T cells
  tumor control: enabled enhanced tumor control
Capan-1 tumor; systemically and at the subcutaneous tumor site
  T cell bioluminescence (BLI): dramatic increase in T cell BLI
IC-21 macrophages; 100 nM AP1903
  IL-6 production: response to AP1903 by producing IL-6
IC-21 macrophages; macrophages
  activation of IL-6, dependence on AP1903: occurred in the presence or absence of AP1903
